Data: PMC10326263 (Acta Pharmaceutica Sinica. B, 2023)

How the values were obtained:
[1] = Cytotoxicity in mock-infected MT-4 cells, MTT method; assay type: cell-based; details: human, mock-infected MT-4 cells, CC50, mock-infected MT-4 cells
[2] = system: HIV-1 mutant strain L100I; assay: microbe, parasite or virus in culture; assay type: cell-based; details: Human immunodeficiency virus 1, MT4, read-out: EC50 L100I
[3] = system: HIV-1 mutant strain K103N; assay: microbe, parasite or virus in culture; assay type: cell-based; details: Human immunodeficiency virus 1, MT4, read-out: EC50 K103N
[4] = system: HIV-1 mutant strain Y181C; assay: microbe, parasite or virus in culture; assay type: cell-based; details: Human immunodeficiency virus 1, MT4, read-out: EC50 Y181C
[5] = system: HIV-1 mutant strain Y188L; assay: microbe, parasite or virus in culture; assay type: cell-based; details: Human immunodeficiency virus 1, MT4, read-out: EC50 Y188L
[6] = system: HIV-1 mutant strain E138K; assay: microbe, parasite or virus in culture; assay type: cell-based; details: Human immunodeficiency virus 1, MT4, read-out: EC50 E138K
[7] = system: HIV-1 mutant strain F227L + V106A; assay: microbe, parasite or virus in culture; assay type: cell-based; details: Human immunodeficiency virus 1, MT4, read-out: EC50 F227L + V106A
[8] = system: HIV-1 mutant strain RES056 (K103N + Y181C); assay: microbe, parasite or virus in culture; assay type: cell-based; details: Human immunodeficiency virus 1, MT4, read-out: EC50 RES056
HIV-1 WT strain (IIIB) = assay: Anti-HIV activity against WT HIV-1; details: WT HIV-1 IIIB

Cc1cc(C)cc(S(=O)(=O)c2c(C(=O)NCCCNS(=O)(=O)c3ccc(Br)cc3)[nH]c3ccc(Cl)cc23)c1 [R6L3, 5-Chloro-3-((3,5-dimethylphenyl)sulfonyl)-N-(3-((4-bromophenyl)sulfonamido)propyl)-1H-indole-2-carboxamide]
CC50 at 5 days [1]: 88100 ± 18100 nM
EC50 [2]: 780 ± 140 nM
EC50 [3]: 1040 ± 190 nM
EC50 [4]: 1320 ± 190 nM
EC50 [5]: 5260 ± 1040 nM
EC50 [6]: 470 ± 200 nM
EC50 [7]: 1480 ± 110 nM
EC50 [8]: > 88100 nM
SI IIIB (CC50/EC50 ratio) (HIV-1 WT strain (IIIB)): 645

Cc1cc(C)cc(S(=O)(=O)c2c(C(=O)NCCCCNS(=O)(=O)c3ccc(C#N)cc3)[nH]c3ccc(Cl)cc23)c1 [R5L4, 5-Chloro-3-((3,5-dimethylphenyl)sulfonyl)-N-(4-((4-cyanophenyl)sulfonamido)butyl)-1H-indole-2-carboxamide]
CC50 at 5 days [1]: 4580 ± 3530 nM
EC50 [2]: 25 ± 2 nM
EC50 [3]: 67 ± 5 nM
EC50 [4]: 54 ± 2 nM
EC50 [5]: 150 ± 10 nM
EC50 [6]: 32 ± 18 nM
EC50 [7]: 82 ± 35 nM
EC50 [8]: > 4580 nM
SI IIIB (CC50/EC50 ratio) (HIV-1 WT strain (IIIB)): 279

Cc1cc(C)cc(S(=O)(=O)c2c(C(=O)NCCCCCNS(=O)(=O)c3ccccc3)[nH]c3ccc(Cl)cc23)c1 [R9L5, 5-Chloro-3-((3,5-dimethylphenyl)sulfonyl)-N-(5-(phenylsulfonamido)pentyl)-1H-indole-2-carboxamide]
CC50 at 5 days [1]: 129000 ± 6850 nM
EC50 [2]: 44 ± 5 nM
EC50 [3]: 340 ± 51 nM
EC50 [4]: 220 ± 17 nM
EC50 [5]: 1460 ± 560 nM
EC50 [6]: 36 ± 7 nM
EC50 [7]: 220 ± 85 nM
EC50 [8]: > 119000 nM
SI IIIB (CC50/EC50 ratio) (HIV-1 WT strain (IIIB)): 8814

Cc1cc(C)cc(S(=O)(=O)c2c(C(=O)NCCCNS(=O)(=O)c3cccc(F)c3)[nH]c3ccc(Cl)cc23)c1 [R12L3, 5-Chloro-3-((3,5-dimethylphenyl)sulfonyl)-N-(3-((3-fluorophenyl)sulfonamido)propyl)-1H-indole-2-carboxamide]
CC50 at 5 days [1]: 204000 ± 10800 nM
EC50 [2]: 260 ± 87 nM
EC50 [3]: 450 ± 120 nM
EC50 [4]: 750 ± 210 nM
EC50 [5]: 3380 ± 450 nM
EC50 [6]: 110 ± 43 nM
EC50 [7]: 990 ± 140 nM
EC50 [8]: 4730 ± 1040 nM
SI IIIB (CC50/EC50 ratio) (HIV-1 WT strain (IIIB)): 5799

Cc1cc(C)cc(S(=O)(=O)c2c(C(=O)NCCCCNS(=O)(=O)c3ccc(F)cc3)[nH]c3ccc(Cl)cc23)c1 [R4L4, 5-Chloro-3-((3,5-dimethylphenyl)sulfonyl)-N-(4-((4-fluorophenyl)sulfonamido)butyl)-1H-indole-2-carboxamide]
CC50 at 5 days [1]: > 211000 nM
EC50 [2]: 56 ± 36 nM
EC50 [3]: 190 ± 51 nM
EC50 [4]: 200 ± 34 nM
EC50 [5]: 1270 ± 200 nM
EC50 [6]: 63 ± 3 nM
EC50 [7]: 290 ± 120 nM
EC50 [8]: > 211000 nM
SI IIIB (CC50/EC50 ratio) (HIV-1 WT strain (IIIB)): >10,593

Cc1cc(C)cc(S(=O)(=O)c2c(C(=O)NCCCCCNS(=O)(=O)c3ccc(Br)cc3)[nH]c3ccc(Cl)cc23)c1 [R6L5, 5-Chloro-3-((3,5-dimethylphenyl)sulfonyl)-N-(5-((4-bromophenyl)sulfonamido)pentyl)-1H-indole-2-carboxamide]
CC50 at 5 days [1]: 37900 ± 6320 nM
EC50 [2]: 120 ± 39 nM
EC50 [3]: 740 ± 90 nM
EC50 [4]: 350 nM
EC50 [5]: 2470 ± 30 nM
EC50 [6]: 320 ± 15 nM
EC50 [7]: 680 ± 75 nM
EC50 [8]: > 37900 nM
SI IIIB (CC50/EC50 ratio) (HIV-1 WT strain (IIIB)): 501

Cc1cc(C)cc(S(=O)(=O)c2c(C(=O)NCCCCNS(=O)(=O)c3ccccc3F)[nH]c3ccc(Cl)cc23)c1 [R11L4, 5-Chloro-3-((3,5-dimethylphenyl)sulfonyl)-N-(4-((2-fluorophenyl)sulfonamido)butyl)-1H-indole-2-carboxamide]
CC50 at 5 days [1]: 189500 ± 1320 nM
EC50 [2]: 63 ± 25 nM
EC50 [3]: 170 ± 17 nM
EC50 [4]: 200 ± 17 nM
EC50 [5]: 1740 ± 320 nM
EC50 [6]: 36 ± 5 nM
EC50 [7]: 290 ± 34 nM
EC50 [8]: > 190000 nM
SI IIIB (CC50/EC50 ratio) (HIV-1 WT strain (IIIB)): 20,621

COc1ccc(S(=O)(=O)NCCCCCNC(=O)c2[nH]c3ccc(Cl)cc3c2S(=O)(=O)c2cc(C)cc(C)c2)cc1 [R2L5, 5-Chloro-3-((3,5-dimethylphenyl)sulfonyl)-N-(5-((4-methoxyphenyl)sulfonamido)pentyl)-1H-indole-2-carboxamide]
CC50 at 5 days [1]: 110000 ± 7890 nM
EC50 [2]: 94 ± 47 nM
EC50 [3]: 570 nM
EC50 [4]: 190 ± 16 nM
EC50 [5]: 1280 ± 440 nM
EC50 [6]: 130 ± 49 nM
EC50 [7]: 280 ± 65 nM
EC50 [8]: > 110000 nM
SI IIIB (CC50/EC50 ratio) (HIV-1 WT strain (IIIB)): 4772

Cc1cc(C)cc(S(=O)(=O)c2c(C(=O)NCCCNS(=O)(=O)c3ccc(Cl)cc3)[nH]c3ccc(Cl)cc23)c1 [R7L3, 5-Chloro-3-((3,5-dimethylphenyl)sulfonyl)-N-(3-((4-chlorophenyl)sulfonamido)propyl)-1H-indole-2-carboxamide]
CC50 at 5 days [1]: > 211000 nM
EC50 [2]: 98 ± 52 nM
EC50 [3]: 220 nM
EC50 [4]: 570 ± 250 nM
EC50 [5]: 190 ± 190 nM
EC50 [6]: 610 ± 120 nM
EC50 [7]: 2610 ± 120 nM
EC50 [8]: 9000 ± 510 nM
SI IIIB (CC50/EC50 ratio) (HIV-1 WT strain (IIIB)): >12,913

Cc1cc(C)cc(S(=O)(=O)c2c(C(=O)NCCCCCNS(=O)(=O)c3cccs3)[nH]c3ccc(Cl)cc23)c1 [R8L5, 5-Chloro-3-((3,5-dimethylphenyl)sulfonyl)-N-(5-(thiophene-2-sulfonamido)pentyl)-1H-indole-2-carboxamide]
CC50 at 5 days [1]: 35400 ± 1050 nM
EC50 [2]: 170 ± 17 nM
EC50 [3]: 1230 ± 220 nM
EC50 [4]: 730 ± 340 nM
EC50 [5]: 2710 ± 130 nM
EC50 [6]: 200 ± 51 nM
EC50 [7]: 1260 ± 340 nM
EC50 [8]: > 43300 nM
SI IIIB (CC50/EC50 ratio) (HIV-1 WT strain (IIIB)): 526

Cc1cc(C)cc(S(=O)(=O)c2c(C(=O)NCCCCNS(=O)(=O)c3cccc(F)c3)[nH]c3ccc(Cl)cc23)c1 [R12L4, 5-Chloro-3-((3,5-dimethylphenyl)sulfonyl)-N-(4-((3-fluorophenyl)sulfonamido)butyl)-1H-indole-2-carboxamide]
CC50 at 5 days [1]: 186000 ± 12500 nM
EC50 [2]: 63 ± 17 nM
EC50 [3]: 240 ± 68 nM
EC50 [4]: 190 ± 34 nM
EC50 [5]: 1450 ± 410 nM
EC50 [6]: 49 ± 12 nM
EC50 [7]: 240 ± 34 nM
EC50 [8]: > 173000 nM
SI IIIB (CC50/EC50 ratio) (HIV-1 WT strain (IIIB)): 10,126

Cc1cc(C)cc(S(=O)(=O)c2c(C(=O)NCCCNS(=O)(=O)c3ccc(C#N)cc3)[nH]c3ccc(Cl)cc23)c1 [R5L3, 5-Chloro-3-((3,5-dimethylphenyl)sulfonyl)-N-(3-((4-cyanophenyl)sulfonamido)propyl)-1H-indole-2-carboxamide]
CC50 at 5 days [1]: 22600 ± 890 nM
EC50 [2]: 330 ± 34 nM
EC50 [3]: 920 ± 410 nM
EC50 [4]: 980 ± 51 nM
EC50 [5]: 3340 ± 17 nM
EC50 [6]: 270 ± 17 nM
EC50 [7]: 1220 ± 51 nM
EC50 [8]: 4090 nM
SI IIIB (CC50/EC50 ratio) (HIV-1 WT strain (IIIB)): 732

COc1ccc(S(=O)(=O)NCCCCNC(=O)c2[nH]c3ccc(Cl)cc3c2S(=O)(=O)c2cc(C)cc(C)c2)cc1 [R2L4, 5-Chloro-3-((3,5-dimethylphenyl)sulfonyl)-N-(4-((4-methoxyphenyl)sulfonamido)butyl)-1H-indole-2-carboxamide]
CC50 at 5 days [1]: 22500 ± 9140 nM
EC50 [2]: 180 nM
EC50 [3]: 330 ± 33 nM
EC50 [4]: 330 nM
EC50 [5]: 800 ± 83 nM
EC50 [6]: 250 ± 50 nM
EC50 [7]: 280 ± 33 nM
EC50 [8]: > 22500 nM
SI IIIB (CC50/EC50 ratio) (HIV-1 WT strain (IIIB)): 615

Cc1cc(C)cc(S(=O)(=O)c2c(C(=O)NCCNS(=O)(=O)c3ccc(Br)cc3)[nH]c3ccc(Cl)cc23)c1 [R6L2, 5-Chloro-3-((3,5-dimethylphenyl)sulfonyl)-N-(2-((4-bromophenyl)sulfonamido)ethyl)-1H-indole-2-carboxamide]
CC50 at 5 days [1]: 151000 ± 19300 nM
EC50 [2]: 750 ± 64 nM
EC50 [3]: 950 ± 160 nM
EC50 [4]: 1010 ± 32 nM
EC50 [5]: ≥ 33700 nM
EC50 [6]: 1270 ± 110 nM
EC50 [7]: 2730 ± 480 nM
EC50 [8]: ≥ 12200 nM
SI IIIB (CC50/EC50 ratio) (HIV-1 WT strain (IIIB)): 964

Cc1cc(C)cc(S(=O)(=O)c2c(C(=O)NCCCNS(=O)(=O)c3ccc(F)cc3)[nH]c3ccc(Cl)cc23)c1 [R4L3, 5-Chloro-3-((3,5-dimethylphenyl)sulfonyl)-N-(3-((4-fluorophenyl)sulfonamido)propyl)-1H-indole-2-carboxamide]
CC50 at 5 days [1]: 35000 ± 6970 nM
EC50 [2]: 240 ± 35 nM
EC50 [3]: 450 ± 100 nM
EC50 [4]: 690 ± 17 nM
EC50 [5]: 2840 ± 52 nM
EC50 [6]: 260 ± 17 nM
EC50 [7]: 1040 ± 35 nM
EC50 [8]: 3550 ± 350 nM
SI IIIB (CC50/EC50 ratio) (HIV-1 WT strain (IIIB)): 901

Cc1cc(C)cc(S(=O)(=O)c2c(C(=O)NCCCCNS(=O)(=O)c3ccc(Br)cc3)[nH]c3ccc(Cl)cc23)c1 [R6L4, 5-Chloro-3-((3,5-dimethylphenyl)sulfonyl)-N-(4-((4-bromophenyl)sulfonamido)butyl)-1H-indole-2-carboxamide]
CC50 at 5 days [1]: 26900 ± 16900 nM
EC50 [2]: 320 ± 150 nM
EC50 [3]: 690 ± 110 nM
EC50 [4]: 600 ± 31 nM
EC50 [5]: 1000 ± 150 nM
EC50 [6]: 780 ± 540 nM
EC50 [7]: 510 ± 92 nM
EC50 [8]: > 26900 nM
SI IIIB (CC50/EC50 ratio) (HIV-1 WT strain (IIIB)): 347

Cc1cc(C)cc(S(=O)(=O)c2c(C(=O)NCCCCCNS(=O)(=O)c3ccc([N+](=O)[O-])cc3)[nH]c3ccc(Cl)cc23)c1 [R3L5, 5-Chloro-3-((3,5-dimethylphenyl)sulfonyl)-N-(5-((4-nitrophenyl)sulfonamido)pentyl)-1H-indole-2-carboxamide]
CC50 at 5 days [1]: > 198000 nM
EC50 [2]: 130 ± 6.3 nM
EC50 [3]: 900 ± 79 nM
EC50 [4]: 300 nM
EC50 [5]: 2470 ± 160 nM
EC50 [6]: 250 ± 32 nM
EC50 [7]: 540 ± 140 nM
EC50 [8]: 25140 ± 47 nM
SI IIIB (CC50/EC50 ratio) (HIV-1 WT strain (IIIB)): >7548
